Source: PMC5028882, “Antiviral activities of peptide-based covalent inhibitors of the Enterovirus 71 3C protease” (Scientific Reports, 2016)
“Also recorded” adds a separate entry of the source. Where two headings read alike, the source gives them in different places.

How the values were obtained:
[1] = test system: Coxsackievirus A16 (CA16); assay: Antiviral assay, Coxsackievirus A16-infected RD cells; format: cell-based; conditions: 100 nM and 1 μM, virus titre after 12 hours
Method: (§1) RD cells were infected with either Coxsackievirus A6 (CA6), Coxsackievirus A16 (CA16) (strain G-10, GenBank accession no. U05876), patient isolates of Coxsackievirus A6 (CA6), or Echovirus 7 (E7) and subjected to treatment with compound 9 at 100 nM or 1 μM or negative control 0.05% DMSO.
(§2) Human RD cells were cultured in DMEM/F-12 (Gibco) supplemented with 10% FBS (GE Healthcare) and the infection medium used for all infections and compound treatment contained was supplemented with 2% FBS. For the compound treatment assays, monolayers of RD cells were first infected with EV71 at a multiplicity of infection (MOI) of 1 for 1 hour at 37 °C, 5% CO2. The compounds were then introduced to the cells at different concentrations. Culture supernatant was collected at 12 hours post-treatment for determination of infectious virus titre by viral plaque assay. Each culture supernatant was 10-fold serially diluted and 100 μL was added, in triplicates, to a monolayer of RD cells in a 24-well format. The infection was allowed to proceed for 1 h at 37 °C, 5% CO2 before the virus was removed. The cells were then washed to remove unbound virus particles with PBS (pH 7.4) and overlaid with infection medium containing 0.5% agarose. […] Plaques that formed were counted visually and the infectious virus titre was calculated, expressed as the average number of PFU per milliliter (PFU/mL) of sample. […]

Coxsackievirus A6 (CA6) = assay: Antiviral assay, Coxsackievirus A6-infected RD cells; format: cell-based; conditions: 100 nM and 1 μM, virus titre after 12 hours
Method: as §1, §2

EV71 3C protease [2] = target: T1, EV71 3C protease (Human enterovirus 71, UniProt Q66478); conditions: cited from earlier work; for IC50: EV71 3C protease (strain 5865/sin/000009), biochemical protease inhibition assay, read-out: Inhibitory Potency, IC50
Echovirus 7 (E7) = assay: Antiviral assay, Echovirus 7-infected RD cells; format: cell-based; conditions: 100 nM and 1 μM, virus titre after 12 hours
Method: as §1, §2

[3] = test system: EV71-infected human RD cells; assay: Antiviral cellular assay, EV71-infected RD cells, virus titre by plaque assay; format: cell-based, human enterovirus 71 (EV71); conditions: for EC50: Enterovirus A, read-out: EC50 for EV71 infections; for Antiviral activity on EV71-infected RD cells (in words): virus titre reduction, up to 5 μM, 12 h
Method: Human RD cells were cultured in DMEM/F-12 (Gibco) supplemented with 10% FBS (GE Healthcare) and the infection medium used for all infections and compound treatment contained was supplemented with 2% FBS. For the compound treatment assays, monolayers of RD cells were first infected with EV71 at a multiplicity of infection (MOI) of 1 for 1 hour at 37 °C, 5% CO2. The compounds were then introduced to the cells at different concentrations. Culture supernatant was collected at 12 hours post-treatment for determination of infectious virus titre by viral plaque assay. Each culture supernatant was 10-fold serially diluted and 100 μL was added, in triplicates, to a monolayer of RD cells in a 24-well format. The infection was allowed to proceed for 1 h at 37 °C, 5% CO2 before the virus was removed. The cells were then washed to remove unbound virus particles with PBS (pH 7.4) and overlaid with infection medium containing 0.5% agarose. The cells were incubated for 48 hours at 37 °C before they were fixed with 4% paraformaldehyde and stained with crystal violet. Plaques that formed were counted visually and the infectious virus titre was calculated, expressed as the average number of PFU per milliliter (PFU/mL) of sample. The 50% effective concentration, EC50, was determined for selected compounds by a non-linear regression graph fitting of the virus titre obtained at a minimum of 5 different compound concentrations and 0.05% DMSO was included as an untreated control.

[4] = Parallel artificial membrane permeability assay (PAMPA); format: in vitro ADME; conditions: for Papp at 4 h, 50 μM: pH 7.4, 50 μM, 4 h incubation, read-out: Permeability (P) at pH 7.4
Method: PAMPA was conducted by GVK Biosciences (India) using Pion PAMPA Sandwich Plates (Pion Inc., USA). Briefly: test compounds were dissolved in buffer at pH 7.4 to make a 50 μM stock solution. 200 μL was then added to the donor compartment of the plate. The plate was inverted and 200 μL of buffer (pH 7.4) was added to the acceptor compartment. After incubation (4 hours), a 50 μL sample was analyzed by UV using a spectrophotometer. Experiments were conducted in triplicates. Compound permeability (P) was calculated using the formula:
where: CA = compound concentration in the acceptor compartment at 4 h, Ceq = compound concentration at equilibrium at 4 h, A = filter area (0.3 cm^2), VA = acceptor compartment volume (200 μL), VD = donor compartment volume (200 μL), t = incubation time (14,400 s). Compounds with a P value of <10 × 10^−6 cm.s^−1 are considered to have low permeability.

EV71 3C protease [5] = target: T1, EV71 3C protease; assay: EV71 3C protease inhibition assay (chromogenic substrate succinyl-EALFQ-pNA); format: biochemical; conditions: EV71 3C protease 6 μM, 2 h preincubation at 25 °C, pH 7.0; read-out: Inhibitory Potency, IC50
Method: EV71 3C protease inhibition assays were based on a published procedure[7] and performed in a buffer containing Tris-HCl (50 mM), NaCl (150 mM), EDTA (1 mM), glycerol (10% v/v) and DTT (2 mM) at pH 7.0. The protease (6 μM) and varying inhibitor concentrations were incubated at 25 °C for 2 h. The final DMSO concentration was maintained at 2%. After that, the chromogenic peptide substrate succinyl-EALFQ-pNA (Peptides International, USA) was added to make a final concentration of 200 μM. The contents were incubated at 25 °C for 2 h. Absorbance at 405 nm was measured with a plate reader at 30 °C. All experiments were conducted in duplicates. IC50 values were derived by fitting the initial velocity against the log [inhibitor] using GraphPad Prism 5 software (USA).

T1 sequence (Q66478 1549-1731): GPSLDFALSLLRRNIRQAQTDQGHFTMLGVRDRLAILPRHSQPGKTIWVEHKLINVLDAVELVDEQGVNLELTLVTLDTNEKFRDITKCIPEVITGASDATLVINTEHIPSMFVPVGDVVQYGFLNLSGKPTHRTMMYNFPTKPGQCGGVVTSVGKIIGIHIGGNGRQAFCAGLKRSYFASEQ

Papp at 4 h, 50 μM [4] [×10⁻⁶ cm/s]	IC50 (EV71 3C protease [5]) [µM]	Structure (SMILES)	Antiviral activity on EV71-infected RD cells (in words) [3]	other results
12.6 ± 1.8	9.3 ± 0.6	CCOC(=O)/C=C/[C@H](C[C@@H]1CCNC1=O)NC(=O)[C@@H](CC(=O)[C@@H](NC(=O)c1cccnn1)C(C)C)Cc1ccc(F)cc1 [Compound 4, ethyl-(S,E)-4-(2R,5S)-2-(4-fluorobenzyl)-6-methyl-4-oxo-5-pyridazine-3-carboxamidoheptanamido-5-(S)-2-oxopyrrolidin-3-yl-pent-2-enoate]	significantly reduced	
14.9 ± 3.3	22.4 ± 3.5	CCOC(=O)/C=C/[C@H](C[C@@H]1CCNC1=O)NC(=O)[C@@H](CC(=O)[C@@H](NC(=O)c1ccccn1)C(C)C)Cc1ccc(F)cc1 [Compound 5, ethyl-(S,E)-4-(2R,5S)-2-(4-fluorobenzyl)-6-methyl-4-oxo-5-picolinamidoheptanamido-5-(S)-2-oxopyrrolidin-3-yl-pent-2-enoate]	did not exhibit significant antiviral activity	
16.9 ± 5.2	> 100	CCOC(=O)/C=C/[C@H](C[C@@H]1CCNC1=O)NC(=O)[C@@H](CC(=O)[C@@H](NC(=O)c1cccnc1)C(C)C)Cc1ccc(F)cc1 [Compound 6, ethyl-(S,E)-4-(2R,5S)-2-(4-fluorobenzyl)-6-methyl-5-nicotinamido-4-oxoheptanamido-5-(S)-2-oxopyrrolidin-3-yl-pent-2-enoate]	did not exhibit significant antiviral activity	
11.6 ± 2.3	5.2 ± 1	CCOC(=O)/C=C/[C@H](C[C@@H]1CCNC1=O)NC(=O)[C@@H](CC(=O)[C@@H](NC(=O)c1nnccc1C)C(C)C)Cc1ccc(F)cc1 [Compound 7, ethyl-(S,E)-4-(2R,5S)-2-(4-fluorobenzyl)-6-methyl-5-(4-methylpyridazine-3-carboxamido)-4-oxoheptanamido-5-(S)-2-oxopyrrolidin-3-yl-pent-2-enoate]	inferior compared to Rupintrivir; also recorded: failed to demonstrate significant antiviral activity	
12.6 ± 0.7	3.7 ± 0.6	CCOC(=O)/C=C/[C@H](C[C@@H]1CCNC1=O)NC(=O)[C@@H](CC(=O)[C@@H](NC(=O)c1ccc(C)nn1)C(C)C)Cc1ccc(F)cc1 [Compound 8, ethyl-(S,E)-4-(2R,5S)-2-(4-fluorobenzyl)-6-methyl-5-(6-methylpyridazine-3-carboxamido)-4-oxoheptanamido-5-(S)-2-oxopyrrolidin-3-yl-pent-2-enoate]	inferior compared to Rupintrivir; also recorded: failed to demonstrate significant antiviral activity	

The next lines start with the compound.

Structure (SMILES)	Papp at 4 h, 50 μM [4] [×10⁻⁶ cm/s]	IC50 (EV71 3C protease [5]) [µM]	Antiviral activity on EV71-infected RD cells (in words) [3]	other results
CCOC(=O)/C=C/[C@H](C[C@@H]1CCNC1=O)NC(=O)[C@@H](CC(=O)[C@@H](NC(=O)c1cc(C)on1)C(C)C)Cc1ccc(F)cc1 [Compound 1, Rupintrivir, reference compound]	46.9 ± 4.7		significant reduction in viral titre	Antiviral activity against Coxsackievirus A16 (in words) [1]: demonstrated antiviral activities; Antiviral activity against Coxsackievirus A6 (in words) (Coxsackievirus A6 (CA6)): demonstrated antiviral activities; IC50 (EV71 3C protease [2]): 7.3 ± 0.8 µM; Inhibition of EV71 3C protease (in words) (EV71 3C protease [2]; earlier reports): micromolar potency; Antiviral activity against Echovirus 7 (in words) (Echovirus 7 (E7)): demonstrated antiviral activities; EC50 ([3]; EV71-infected RD cells, virus titre by plaque assay): 0.016 µM; Membrane permeability (in words) ([4]; pH 7.4): highly membrane permeable
CCOC(=O)/C=C/[C@H](C[C@@H]1CCNC1=O)NC(=O)[C@@H]1[C@@H](c2ccccc2)CCN1C(=O)[C@@H](NC(=O)c1cc(C)on1)C(C)C [Compound 2]	7.1 ± 0.9		failed to demonstrate significant antiviral activity; also recorded: weakly active	IC50 (EV71 3C protease [2]): 3.2 ± 0.5 µM; Fold more potent than Rupintrivir in the protease inhibition assay (EV71 3C protease [2]; IC50 compared with Rupintrivir): 2 fold; Fold less permeable than Rupintrivir ([4]; pH 7.4): approximately 7 fold
CCOC(=O)/C=C/[C@H](C[C@@H]1CCNC1=O)NC(=O)[C@H](Cc1ccc(F)cc1)NC(=O)[C@@H](NC(=O)c1cc(C)on1)C(C)C [Compound 3]	25.1 ± 3.6	6.2 ± 0.6	significantly less potent than Rupintrivir	Fold less permeable than Rupintrivir ([4]; pH 7.4): approximately 2 fold
CCOC(=O)/C=C/[C@H](C[C@@H]1CCNC1=O)NC(=O)[C@@H](CC(=O)[C@@H](NC(=O)C(F)(F)F)C(C)C)Cc1ccc(F)cc1 [Compound 9]	32.7 ± 6.7	7.7 ± 0.8	exhibited antiviral activity; also recorded: potent antiviral activity	Antiviral activity against Coxsackievirus A16 (in words) [1]: potent antiviral activity; also recorded: demonstrated antiviral activities; Antiviral activity against Coxsackievirus A6 (in words) (Coxsackievirus A6 (CA6)): potent antiviral activity; also recorded: demonstrated antiviral activities; Antiviral activity against Echovirus 7 (in words) (Echovirus 7 (E7)): potent antiviral activity; also recorded: demonstrated antiviral activities; EC50 ([3]; EV71, RD): 0.065 µM
CCOC(=O)/C=C/[C@H](C[C@@H]1CCNC1=O)NC(=O)[C@@H](CC(=O)[C@@H](NC(=O)C(C)(C)C)C(C)C)Cc1ccc(F)cc1 [Compound 10, ethyl-(S,E)-4-(2R,5S)-2-(4-fluorobenzyl)-6-methyl-4-oxo-5-pivalamidoheptanamido-5-(S)-2-oxopyrrolidin-3-yl-pent-2-enoate]	15 ± 2.6	> 100	abrogation of both biochemical and cellular activity	
CCOC(=O)/C=C/[C@H](C[C@@H]1CCNC1=O)NC(=O)[C@@H](CC(=O)[C@@H](NC(=O)C(C)C)C(C)C)Cc1ccc(F)cc1 [Compound 11, ethyl-(S,E)-4-(2R,5S)-2-(4-fluorobenzyl)-5-isobutyramido-6-methyl-4-oxoheptanamido-5-(S)-2-oxopyrrolidin-3-yl-pent-2-enoate]	16.9 ± 0.8	11.7 ± 0.7	significantly reduced antiviral activity	
